Source: ChEMBL document CHEMBL1909294, “Translating clinical findings into knowledge in drug safety evaluation--drug induced liver injury prediction system (DILIps)” (PLoS Comput Biol, 2011)
*1 amine or outer side, *2 acyl side, *3 side chain or, on linkers, in order; H or OH if unused. Where a SMILES comes first, the peptide text is derived from it. Bridges are numbered along the chain shown (N, C = ends). Roman numbers before positions name the chains, in order. [ ]: non-standard residue; d: D form. Actinocin(9to1) = Cc1c2oc3c(C)ccc(C(=O)[*:1])c3nc-2c(C(=O)[*:2])c(N)c1=O; NMeV = CN[C@H](C(=O)O)C(C)C; Sar = CNCC(=O)O

Assays:
[1] = test system: Hepatotoxicity;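 for HepSE cholecystitis: Cholecystitis-related hepatic side effect score drawn from the DILIps (drug-induced liver injury prediction) training data set; call rule not given here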;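 for HepSE cholelithiasis: hepatic side effect score for cholelithiasis, drawn from the DILIps training data for predicting drug-induced liver injury; call rule not given here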;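 for HepSE cirrhosis: cirrhosis hepatic side effect score taken from the DILIps (drug-induced liver injury prediction) training set; call rule not given here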;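 for HepSE elevated liver function tests: hepatic side effect score for raised liver function tests, as recorded in the DILIps training set used for predicting drug-induced liver injury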;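 for HepSE hepatitis: Hepatitis-related hepatic side effect score taken from the training data of DILIps, a prediction system for drug-induced liver injury; call rule not given here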;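 for HepSE hepatomegaly: hepatic side effect score for hepatomegaly, taken from the training set of the DILIps drug-induced liver injury prediction system; call rule not given here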; for HepSE liver disease: call rule not given here
[2] = test system: Hepatotoxicity; remark: listed apart in the source;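 for HepSE cholelithiasis: hepatic side effect score for cholelithiasis, drawn from the DILIps training data for predicting drug-induced liver injury; call rule not given here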;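 for HepSE cirrhosis: cirrhosis hepatic side effect score taken from the DILIps (drug-induced liver injury prediction) training set; call rule not given here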;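 for HepSE elevated liver function tests: hepatic side effect score for raised liver function tests, as recorded in the DILIps training set used for predicting drug-induced liver injury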;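 for HepSE hepatitis: Hepatitis-related hepatic side effect score taken from the training data of DILIps, a prediction system for drug-induced liver injury; call rule not given here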;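 for HepSE hepatomegaly: hepatic side effect score for hepatomegaly, taken from the training set of the DILIps drug-induced liver injury prediction system; call rule not given here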; for HepSE liver disease: call rule not given here
[3] = test system: Hepatotoxicity; remark: listed apart in the source;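 for HepSE cholelithiasis: hepatic side effect score for cholelithiasis, drawn from the DILIps training data for predicting drug-induced liver injury; call rule not given here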;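 for HepSE cirrhosis: cirrhosis hepatic side effect score taken from the DILIps (drug-induced liver injury prediction) training set; call rule not given here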;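 for HepSE elevated liver function tests: hepatic side effect score for raised liver function tests, as recorded in the DILIps training set used for predicting drug-induced liver injury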;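 for HepSE hepatitis: Hepatitis-related hepatic side effect score taken from the training data of DILIps, a prediction system for drug-induced liver injury; call rule not given here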;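 for HepSE hepatomegaly: hepatic side effect score for hepatomegaly, taken from the training set of the DILIps drug-induced liver injury prediction system; call rule not given here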; for HepSE liver disease: call rule not given here
[4] = test system: Hepatotoxicity; remark: listed apart in the source;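 for HepSE cholelithiasis: hepatic side effect score for cholelithiasis, drawn from the DILIps training data for predicting drug-induced liver injury; call rule not given here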;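 for HepSE cirrhosis: cirrhosis hepatic side effect score taken from the DILIps (drug-induced liver injury prediction) training set; call rule not given here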;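 for HepSE elevated liver function tests: hepatic side effect score for raised liver function tests, as recorded in the DILIps training set used for predicting drug-induced liver injury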;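 for HepSE hepatitis: Hepatitis-related hepatic side effect score taken from the training data of DILIps, a prediction system for drug-induced liver injury; call rule not given here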;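 for HepSE hepatomegaly: hepatic side effect score for hepatomegaly, taken from the training set of the DILIps drug-induced liver injury prediction system; call rule not given here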; for HepSE liver disease: call rule not given here
[5] = test system: Hepatotoxicity; remark: listed apart in the source; for HepSE liver disease: call rule not given here
[6] = test system: Hepatotoxicity; remark: listed apart in the source; for HepSE liver disease: call rule not given here
[7] = test system: Hepatotoxicity; remark: listed apart in the source
[8] = test system: Hepatotoxicity; remark: listed apart in the source
[9] = test system: Hepatotoxicity; remark: listed apart in the source
[10] = test system: Hepatotoxicity; remark: listed apart in the source
[11] = test system: Hepatotoxicity; remark: listed apart in the source
[12] = test system: Hepatotoxicity; remark: listed apart in the source
[13] = test system: Hepatotoxicity; remark: listed apart in the source
[14] = test system: Hepatotoxicity; remark: listed apart in the source

CN(C)/N=N/c1[nH]cnc1C(N)=O [DACARBAZINE]
0: HepSE_cirrhosis [1] | HepSE_hepatomegaly [2] | HepSE_elevated liver function tests [3] | HepSE_cholelithiasis [4] | HepSE_hepatitis [5] | HepSE_hepatic necrosis [6] | HepSE_liver disease [7] | HepSE_cholecystitis [8] | HepSE_liver fatty [9] | HepSE_liver function tests abnormal [10] | HepSE_bilirubinemia [11] | HepSE_hepatic failure [12] | HepSE_jaundice [13] | HepSE_Combined Scores [14]

Cc1c2oc3c(C)ccc(C(=O)N[C@@H]4C(=O)N[C@H](C(C)C)C(=O)N5CCC[C@H]5C(=O)N(C)CC(=O)N(C)[C@@H](C(C)C)C(=O)O[C@@H]4C)c3nc-2c(C(=O)N[C@@H]2C(=O)N[C@H](C(C)C)C(=O)N3CCC[C@H]3C(=O)N(C)CC(=O)N(C)[C@@H](C(C)C)C(=O)O[C@@H]2C)c(N)c1=O [DACTINOMYCIN] (I: T[dV]P[Sar][NMeV] / II: T[dV]P[Sar][NMeV]; ester I:1-I:C, II:1-II:C; linker I:N-II:N via Actinocin(9to1))
0: HepSE_cirrhosis [1] | HepSE_hepatomegaly [2] | HepSE_elevated liver function tests [3] | HepSE_cholelithiasis [4] | HepSE_hepatitis [5] | HepSE_hepatic necrosis [6] | HepSE_liver disease [7] | HepSE_cholecystitis [8] | HepSE_liver fatty [9] | HepSE_liver function tests abnormal [10] | HepSE_bilirubinemia [11] | HepSE_jaundice [13]
1: HepSE_hepatic failure [12] | HepSE_Combined Scores [14]

C#C[C@]1(O)CC[C@H]2[C@@H]3CCC4=Cc5oncc5C[C@]4(C)[C@H]3CC[C@@]21C [DANAZOL]
1: HepSE_jaundice [13] | HepSE_Combined Scores [14]
0: HepSE_cirrhosis [1] | HepSE_hepatomegaly [2] | HepSE_elevated liver function tests [3] | HepSE_cholelithiasis [4] | HepSE_hepatitis [5] | HepSE_hepatic necrosis [6] | HepSE_liver disease [7] | HepSE_cholecystitis [8] | HepSE_liver fatty [9] | HepSE_liver function tests abnormal [10] | HepSE_bilirubinemia [11] | HepSE_hepatic failure [12]

O=C1CN(/N=C/c2ccc(-c3ccc([N+](=O)[O-])cc3)o2)C(O)=N1 [DANTROLENE]
1: HepSE_hepatitis [5] | HepSE_hepatic failure [12]
0: HepSE_cirrhosis [1] | HepSE_hepatomegaly [2] | HepSE_elevated liver function tests [3] | HepSE_cholelithiasis [4] | HepSE_hepatic necrosis [6] | HepSE_liver disease [7] | HepSE_cholecystitis [8] | HepSE_liver fatty [9] | HepSE_liver function tests abnormal [10] | HepSE_bilirubinemia [11] | HepSE_jaundice [13]
2: HepSE_Combined Scores [14]

Nc1ccc(S(=O)(=O)c2ccc(N)cc2)cc1 [DAPSONE]
0: HepSE_cirrhosis ([1]; Liver) | HepSE_hepatomegaly ([2]; Liver) | HepSE_elevated liver function tests ([3]; Liver) | HepSE_cholelithiasis ([4]; Liver) | HepSE_hepatitis ([5]; Liver) | HepSE_hepatic necrosis ([6]; Liver) | HepSE_liver disease ([7]; Liver) | HepSE_cholecystitis ([8]; Liver) | HepSE_liver fatty ([9]; Liver) | HepSE_liver function tests abnormal ([10]; Liver) | HepSE_bilirubinemia ([11]; Liver) | HepSE_hepatic failure ([12]; Liver) | HepSE_jaundice ([13]; Liver) | HepSE_Combined Scores ([14]; Liver)

NC(=O)C(c1ccccc1)(c1ccccc1)[C@@H]1CCN(CCc2ccc3c(c2)CCO3)C1 [DARIFENACIN]
0: HepSE_cirrhosis [1] | HepSE_hepatomegaly [2] | HepSE_elevated liver function tests [3] | HepSE_cholelithiasis [4] | HepSE_hepatitis [5] | HepSE_hepatic necrosis [6] | HepSE_liver disease [7] | HepSE_cholecystitis [8] | HepSE_liver fatty [9] | HepSE_liver function tests abnormal [10] | HepSE_bilirubinemia [11] | HepSE_hepatic failure [12] | HepSE_jaundice [13] | HepSE_Combined Scores [14]

Cc1nc(Nc2ncc(C(=O)Nc3c(C)cccc3Cl)s2)cc(N2CCN(CCO)CC2)n1.O [DASATINIB]
1: HepSE_hepatitis [5] | HepSE_cholecystitis [8] | HepSE_liver function tests abnormal [10]
0: HepSE_cirrhosis [1] | HepSE_hepatomegaly [2] | HepSE_elevated liver function tests [3] | HepSE_cholelithiasis [4] | HepSE_hepatic necrosis [6] | HepSE_liver disease [7] | HepSE_liver fatty [9] | HepSE_bilirubinemia [11] | HepSE_hepatic failure [12] | HepSE_jaundice [13]
3: HepSE_Combined Scores [14]

COc1cccc2c1C(=O)c1c(O)c3c(c(O)c1C2=O)C[C@@](O)(C(C)=O)C[C@@H]3O[C@H]1C[C@H](N)[C@H](O)[C@H](C)O1 [DAUNORUBICIN]
1: HepSE_hepatomegaly [2] | HepSE_Combined Scores [14]
0: HepSE_cirrhosis [1] | HepSE_elevated liver function tests [3] | HepSE_cholelithiasis [4] | HepSE_hepatitis [5] | HepSE_hepatic necrosis [6] | HepSE_liver disease [7] | HepSE_cholecystitis [8] | HepSE_liver fatty [9] | HepSE_liver function tests abnormal [10] | HepSE_bilirubinemia [11] | HepSE_hepatic failure [12] | HepSE_jaundice [13]

O=C(O)c1ccc(-n2nc(-c3ccccc3O)nc2-c2ccccc2O)cc1 [DEFERASIROX]
1: HepSE_cirrhosis [1] | HepSE_cholelithiasis [4] | HepSE_hepatitis [5] | HepSE_liver function tests abnormal [10] | HepSE_hepatic failure [12]
5: HepSE_Combined Scores [14]
0: HepSE_hepatomegaly [2] | HepSE_elevated liver function tests [3] | HepSE_hepatic necrosis [6] | HepSE_liver disease [7] | HepSE_cholecystitis [8] | HepSE_liver fatty [9] | HepSE_bilirubinemia [11] | HepSE_jaundice [13]

CC(=O)N(O)CCCCCNC(=O)CCC(=O)N(O)CCCCCNC(=O)CCC(=O)N(O)CCCCCN [DEFEROXAMINE]
0: HepSE_cirrhosis [1] | HepSE_hepatomegaly [2] | HepSE_elevated liver function tests [3] | HepSE_cholelithiasis [4] | HepSE_hepatitis [5] | HepSE_hepatic necrosis [6] | HepSE_liver disease [7] | HepSE_cholecystitis [8] | HepSE_liver fatty [9] | HepSE_liver function tests abnormal [10] | HepSE_bilirubinemia [11] | HepSE_hepatic failure [12] | HepSE_jaundice [13] | HepSE_Combined Scores [14]

CC(C)Nc1cccnc1N1CCN(C(=O)c2cc3cc(NS(C)(=O)=O)ccc3[nH]2)CC1 [DELAVIRDINE]
5: HepSE_Combined Scores [14]
0: HepSE_cirrhosis [1] | HepSE_elevated liver function tests [3] | HepSE_cholelithiasis [4] | HepSE_hepatic necrosis [6] | HepSE_liver disease [7] | HepSE_cholecystitis [8] | HepSE_liver fatty [9] | HepSE_liver function tests abnormal [10]
1: HepSE_hepatomegaly [2] | HepSE_hepatitis [5] | HepSE_bilirubinemia [11] | HepSE_hepatic failure [12] | HepSE_jaundice [13]

CN(C)[C@@H]1C(O)=C(C(N)=O)C(=O)[C@@]2(O)C(O)=C3C(=O)c4c(O)ccc(Cl)c4[C@@H](O)[C@H]3C[C@@H]12 [DEMECLOCYCLINE]
2: HepSE_Combined Scores [14]
0: HepSE_cirrhosis [1] | HepSE_hepatomegaly [2] | HepSE_elevated liver function tests [3] | HepSE_cholelithiasis [4] | HepSE_hepatic necrosis [6] | HepSE_liver disease [7] | HepSE_cholecystitis [8] | HepSE_liver fatty [9] | HepSE_liver function tests abnormal [10] | HepSE_bilirubinemia [11] | HepSE_jaundice [13]
1: HepSE_hepatitis [5] | HepSE_hepatic failure [12]

CNCCCN1c2ccccc2CCc2ccccc21 [DESIPRAMINE]
3: HepSE_Combined Scores ([14]; Liver)
1: HepSE_elevated liver function tests ([3]; Liver) | HepSE_hepatitis ([5]; Liver) | HepSE_jaundice ([13]; Liver)
0: HepSE_cirrhosis ([1]; Liver) | HepSE_hepatomegaly ([2]; Liver) | HepSE_cholelithiasis ([4]; Liver) | HepSE_hepatic necrosis ([6]; Liver) | HepSE_liver disease ([7]; Liver) | HepSE_cholecystitis ([8]; Liver) | HepSE_liver fatty ([9]; Liver) | HepSE_liver function tests abnormal ([10]; Liver) | HepSE_bilirubinemia ([11]; Liver) | HepSE_hepatic failure ([12]; Liver)

NC(=O)CC[C@@H]1NC(=O)[C@H](Cc2ccccc2)NC(=O)[C@H](Cc2ccc(O)cc2)NC(=O)CCSSC[C@@H](C(=O)N2CCC[C@H]2C(=O)N[C@H](CCCN=C(N)N)C(=O)NCC(N)=O)NC(=O)[C@H](CC(N)=O)NC1=O [DESMOPRESSIN]
0: HepSE_cirrhosis [1] | HepSE_hepatomegaly [2] | HepSE_elevated liver function tests [3] | HepSE_cholelithiasis [4] | HepSE_hepatitis [5] | HepSE_hepatic necrosis [6] | HepSE_liver disease [7] | HepSE_cholecystitis [8] | HepSE_liver fatty [9] | HepSE_liver function tests abnormal [10] | HepSE_bilirubinemia [11] | HepSE_hepatic failure [12] | HepSE_jaundice [13] | HepSE_Combined Scores [14]

CC1(C)O[C@@H]2C[C@H]3[C@@H]4CCC5=CC(=O)C=C[C@]5(C)[C@H]4[C@@H](O)C[C@]3(C)[C@]2(C(=O)CO)O1 [DESONIDE]
0: HepSE_cirrhosis [1] | HepSE_hepatomegaly [2] | HepSE_elevated liver function tests [3] | HepSE_cholelithiasis [4] | HepSE_hepatitis [5] | HepSE_hepatic necrosis [6] | HepSE_liver disease [7] | HepSE_cholecystitis [8] | HepSE_liver fatty [9] | HepSE_liver function tests abnormal [10] | HepSE_bilirubinemia [11] | HepSE_hepatic failure [12] | HepSE_jaundice [13] | HepSE_Combined Scores [14]

C[C@@H]1C[C@H]2[C@@H]3CCC4=CC(=O)C=C[C@]4(C)[C@@]3(F)[C@@H](O)C[C@]2(C)[C@H]1C(=O)CO [DESOXIMETASONE]
0: HepSE_cirrhosis [1] | HepSE_hepatomegaly [2] | HepSE_elevated liver function tests [3] | HepSE_cholelithiasis [4] | HepSE_hepatitis [5] | HepSE_hepatic necrosis [6] | HepSE_liver disease [7] | HepSE_cholecystitis [8] | HepSE_liver fatty [9] | HepSE_liver function tests abnormal [10] | HepSE_bilirubinemia [11] | HepSE_hepatic failure [12] | HepSE_jaundice [13] | HepSE_Combined Scores [14]
